Our source for the IC50 values is BindingDB's records for doi:10.1021/acs.jmedchem.1c01452 (Zhengzhou University, 2021).

Molecules are shown by their SMILES.

A short description of data set [1]: Inhibition of ABCB1 (unknown origin) expressed in HEK293T cells assessed as reduction in paclitaxel IC50 at 0.5 uM pre-incubated for 4 hrs followed by paclitaxel addition and measured after 72 hrs by MTT assay. (In general: Tetrazolium dyes change colour on reduction, which living cells bring about.)
A short description of data set [2]: Inhibition of ABCB1 (unknown origin) expressed in HEK293T cells assessed as reduction in colchicine IC50 at 2 uM pre-incubated for 4 hrs followed by colchicine addition and measured after 72 hrs by MTT assay.
A short description of data set [3]: Inhibition of ABCB1 (unknown origin) expressed in HEK293T cells assessed as reduction in colchicine IC50 at 0.5 uM pre-incubated for 4 hrs followed by colchicine addition and measured after 72 hrs by MTT assay.
A short description of data set [4]: Inhibition of ABCB1 (unknown origin) expressed in HEK293T cells assessed as reduction in paclitaxel IC50 at 2 uM pre-incubated for 4 hrs followed by paclitaxel addition and measured after 72 hrs by MTT assay.
The nature of data set [5]: Inhibition of ABCB1 (unknown origin) expressed in HEK293T cells assessed as reduction in paclitaxel IC50 at 1 uM pre-incubated for 4 hrs followed by paclitaxel addition and measured after 72 hrs by MTT assay.
The nature of data set [6]: Inhibition of ABCB1 (unknown origin) expressed in HEK293T cells assessed as reduction in colchicine IC50 at 1 uM pre-incubated for 4 hrs followed by colchicine addition and measured after 72 hrs by MTT assay.

As a reminder, the IC50 is the concentration at which inhibition is half-maximal. With `COc1cc2ncnc(-c3c(-c4ccccc4)n(Cc4ccccc4Br)c4ccccc34)c2cc1OCCCN1CCOCC1`, the IC50 is 30.5 µM in data set [1]; 22.2 µM in data set [2]; 321 µM in data set [3]; 3.6 µM in data set [4]; 12.2 µM in data set [5]; 101 µM in data set [6].
